In experiment [1] the target is PA63-LF binding (Bacillus anthracis, UniProt P13423).
Experiment [2] concerns the target anthrax lethal toxin (PA83 and LF) (Bacillus anthracis, UniProt P13423). To be noted: rat, in vivo, iv.
Experiment [3] has as its system J774A.1 cells incubated with PA83 and LF. It counts as cell-based, mouse.
For experiment [4], the target named is T1, PA63 (Bacillus anthracis, UniProt P13423).
The target of experiment [5] is LF (Bacillus anthracis, UniProt P15917).
The target of experiment [6] is purified recombinant PA83 (Bacillus anthracis, UniProt P13423).
The target of experiment [7] is T1, PA63. The source holds these as a separate data set.

Consider 29 substances from patent US20090104214A1 (priority 2004, published 2009).

PA63-LF binding, sequence (P13423 197-764 limits assumed): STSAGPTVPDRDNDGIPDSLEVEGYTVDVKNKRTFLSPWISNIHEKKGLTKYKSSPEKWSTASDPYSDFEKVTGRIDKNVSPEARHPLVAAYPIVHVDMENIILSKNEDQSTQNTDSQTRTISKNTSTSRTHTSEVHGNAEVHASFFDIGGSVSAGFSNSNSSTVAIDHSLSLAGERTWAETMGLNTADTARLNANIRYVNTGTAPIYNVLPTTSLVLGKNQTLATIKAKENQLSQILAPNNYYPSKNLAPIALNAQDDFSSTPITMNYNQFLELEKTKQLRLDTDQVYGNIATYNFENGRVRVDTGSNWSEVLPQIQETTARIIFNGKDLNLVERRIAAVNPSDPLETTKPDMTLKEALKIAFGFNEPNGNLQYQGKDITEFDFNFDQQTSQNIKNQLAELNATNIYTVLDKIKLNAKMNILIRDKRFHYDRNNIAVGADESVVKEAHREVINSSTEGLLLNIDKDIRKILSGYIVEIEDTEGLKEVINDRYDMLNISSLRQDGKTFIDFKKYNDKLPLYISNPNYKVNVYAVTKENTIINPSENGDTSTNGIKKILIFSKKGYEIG
anthrax lethal toxin (PA83 and LF), sequence (P13423 197-764 limits assumed): as above
T1 sequence (P13423 197-764 limits assumed): as above
LF, sequence (P15917 34-809 limits assumed): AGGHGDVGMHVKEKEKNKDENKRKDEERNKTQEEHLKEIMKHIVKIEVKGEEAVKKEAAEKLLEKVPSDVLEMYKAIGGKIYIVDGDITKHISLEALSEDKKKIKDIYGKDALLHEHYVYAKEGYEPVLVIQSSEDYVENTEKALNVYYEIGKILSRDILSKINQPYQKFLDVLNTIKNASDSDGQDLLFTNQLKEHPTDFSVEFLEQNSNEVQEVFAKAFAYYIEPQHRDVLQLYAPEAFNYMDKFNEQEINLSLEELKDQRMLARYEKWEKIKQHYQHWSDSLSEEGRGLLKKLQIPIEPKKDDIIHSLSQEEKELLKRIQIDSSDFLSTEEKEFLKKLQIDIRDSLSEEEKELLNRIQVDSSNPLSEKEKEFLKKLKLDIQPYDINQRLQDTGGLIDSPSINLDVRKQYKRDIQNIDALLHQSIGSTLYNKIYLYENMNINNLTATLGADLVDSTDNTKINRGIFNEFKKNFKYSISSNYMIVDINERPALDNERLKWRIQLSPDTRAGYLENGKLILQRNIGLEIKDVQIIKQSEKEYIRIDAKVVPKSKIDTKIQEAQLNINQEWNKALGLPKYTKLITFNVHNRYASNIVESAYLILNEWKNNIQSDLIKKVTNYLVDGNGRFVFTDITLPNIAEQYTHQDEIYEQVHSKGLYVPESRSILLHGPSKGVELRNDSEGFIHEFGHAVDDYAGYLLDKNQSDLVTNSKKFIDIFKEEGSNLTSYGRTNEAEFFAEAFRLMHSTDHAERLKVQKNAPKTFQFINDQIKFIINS
purified recombinant PA83, sequence (P13423 30-764 limits assumed): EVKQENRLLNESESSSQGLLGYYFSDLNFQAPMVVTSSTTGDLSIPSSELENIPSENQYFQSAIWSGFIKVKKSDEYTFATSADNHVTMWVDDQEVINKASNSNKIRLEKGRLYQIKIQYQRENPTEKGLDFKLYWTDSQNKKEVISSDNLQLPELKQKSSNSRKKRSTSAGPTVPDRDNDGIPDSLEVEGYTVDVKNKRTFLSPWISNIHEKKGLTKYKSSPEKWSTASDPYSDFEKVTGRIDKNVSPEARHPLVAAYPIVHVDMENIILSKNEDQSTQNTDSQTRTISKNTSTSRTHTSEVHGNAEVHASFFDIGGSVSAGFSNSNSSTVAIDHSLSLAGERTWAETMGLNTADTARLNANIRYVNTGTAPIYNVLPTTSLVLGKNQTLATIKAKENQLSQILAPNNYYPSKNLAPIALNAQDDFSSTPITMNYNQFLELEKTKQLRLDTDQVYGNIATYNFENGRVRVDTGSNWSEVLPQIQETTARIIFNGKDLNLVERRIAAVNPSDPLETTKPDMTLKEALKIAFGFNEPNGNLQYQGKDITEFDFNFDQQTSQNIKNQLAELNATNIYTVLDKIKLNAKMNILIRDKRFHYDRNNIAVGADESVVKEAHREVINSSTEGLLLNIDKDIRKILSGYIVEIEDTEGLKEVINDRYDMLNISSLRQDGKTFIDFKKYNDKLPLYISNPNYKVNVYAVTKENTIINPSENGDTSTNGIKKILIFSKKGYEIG

For the substance AVMTYWWLDPPL, in experiment [1], the “effective in blocking the interaction of PA with LF (summary statement)” value (“effective in blocking the interaction” below) is listed as “Particularly effective” and the “inhibition of PA63-LF binding in ELISA, alanine scanning of MAP3” value (shortened to “inhibition of PA63-LF binding … of MAP3”) is given as “better efficiency”.
On to NAMTYWWLDPPL [MAP3V/A], for which, in experiment [1], the “effective in blocking the interaction” value was “Particularly effective” and the “inhibition of PA63-LF binding … of MAP3” value is given as “better efficiency”. For the same substance, the “neutralization of lethal toxin toxicity in rats” value (shortened to “neutralization”) in experiment [2] is reported as “completely neutralized toxicity”. In experiment [3], the “IC50 for inhibition of PA83/LF-induced cell mortality, compared with MAP3” value was “one log lower than that of MAP3”.
As for NDMTYWWLDPPL, in experiment [1], the “effective in blocking the interaction” value is reported as “Particularly effective” and the “inhibition of PA63-LF binding in ELISA, substitution of position 2 of MAP 3” value (from here on “inhibition of PA63-LF binding … of MAP 3”) is “good efficiency”.
Consider NEMTYWWLDPPL, for which, in experiment [1], the “effective in blocking the interaction” value was “Particularly effective” and the “inhibition of PA63-LF binding … of MAP 3” value is reported as “good efficiency”.
The matching figures for NGMTYWWLDPPL: “Particularly effective” and “good efficiency”.
The matching figures for NNMTYWWLDPPL: “Particularly effective” and “good efficiency”.
On to NPMTYWWLDPPL, for which, in experiment [1], the “effective in blocking the interaction” value is recorded as “Particularly effective” and the “inhibition of PA63-LF binding … of MAP 3” value is listed as “good efficiency”.
Consider NQMTYWWLDPPL, for which, in experiment [1], the “effective in blocking the interaction” value is “Particularly effective” and the “inhibition of PA63-LF binding … of MAP 3” value is listed as “good efficiency”.
For the substance NSMTYWWLDPPL, in experiment [1], the “effective in blocking the interaction” value is listed as “Particularly effective” and the “inhibition of PA63-LF binding … of MAP 3” value was “good efficiency”.
Taken in the same sequence, the figures for NTMTYWWLDPPL were “Particularly effective” and “good efficiency”.
Regarding NVMTYWWLAPPL, in experiment [1], the “effective in blocking the interaction” value is reported as “Particularly effective” and the “inhibition of PA63-LF binding … of MAP3” value was “better efficiency”.
The matching figures for NVMTYWWLDPPA: “Particularly effective” and “better efficiency”.
NVMTYWWLDPPL [MAP3]: the “binding to PA63 in ELISA” value in experiment [4] is on record as “specifically bound”. Besides, the “binding to LF in ELISA” value in experiment [5] is recorded as “did not bind”. Moreover, the “binding to purified recombinant PA83 in ELISA” value in experiment [6] is “did not bind”. In experiment [1], the “IC50 of inhibition of PA63-LF binding in ELISA, compared with MAP2” value is listed as “about one log lower than that of MAP2” and the “effective in blocking the interaction” value is reported as “Particularly effective”. Moreover, in experiment [2], the “neutralization” value was “completely neutralized toxicity”.
NVMTYWWLDPPL [p3]: in experiment [7], the “equilibrium association constant KA of peptide-PA63 binding” value (shortened to “equilibrium association constant KA”) is 3.4e+07 M⁻¹, the koff is 0.0004 s⁻¹ and the on-rate constant (kon) worked out at 14000 M⁻¹ s⁻¹.
Regarding NYMTYWWLDPPL, in experiment [1], the “effective in blocking the interaction” value is listed as “Particularly effective” and the “inhibition of PA63-LF binding … of MAP 3” value was “good efficiency”.
With TLAYWWLTPSNP, in experiment [1], the “effective in blocking the interaction” value is given as “Particularly effective”.
For TLPYWWLTPSNP [MAP2], the “binding to PA63 in ELISA” value in experiment [4] was “specifically bound”. In addition, the “binding to LF in ELISA” value in experiment [5] was “did not bind”. Besides, the “binding to purified recombinant PA83 in ELISA” value in experiment [6] is listed as “did not bind”. Further, the “effective in blocking the interaction” value in experiment [1] is recorded as “Particularly effective”.
Consider TLPYWWLTPSNP [p2], for which, in experiment [7], the “equilibrium association constant KA” value amounted to 7.2e+06 M⁻¹, the koff was 0.0007 s⁻¹ and the kon came to 5000 M⁻¹ s⁻¹.
As for YWWLDPP, the “effective in blocking the interaction” value in experiment [1] is recorded as “Particularly effective”.
On the same count and under the same terms, with YWWLEPP the entry was “Particularly effective”; with YWWLHPP, “Particularly effective”; with YWWLKPP, “Particularly effective”.
The same measure, in the same setting: next, YWWLQPP: “Particularly effective”.
For YWWLTP, the “inhibition of PA63-LF binding in ELISA, shortening of MAP2 and re-elongation of YWWLTP” value (“inhibition of PA63-LF binding … of YWWLTP” for short) in experiment [1] is reported as “minimal sequence able to inhibit PA-LF binding”.
Take YWWLTPP: in experiment [1], the “effective in blocking the interaction” value was “Particularly effective”; the “inhibition of PA63-LF binding … of YWWLTP” value was “superior inhibitory efficiency”.
For YWWLTPPA, in experiment [1], the “effective in blocking the interaction” value is on record as “Particularly effective”; the “inhibition of PA63-LF binding … of YWWLTP” value is “even better efficiency”.
Consider YWWLTPPP [8mer peptide YWWLTPPP], for which, in experiment [7], the “KA fold higher than that of lead 12mer p2” value was “about 10 fold”, the “equilibrium association constant KA” value is 6.8e+07 M⁻¹, the dissociation rate constant (koff) was determined as 0.0013 s⁻¹ and the on-rate constant (kon) was determined as 88000 M⁻¹ s⁻¹.
On to YWWLTPPP [MAP YWWLTPPP], for which, in experiment [1], the “effective in blocking the interaction” value was “Particularly effective”; the “inhibition of PA63-LF binding … of YWWLTP” value was “even better efficiency”. In addition, in experiment [2], the “neutralization” value is “completely neutralized toxicity”.
On to YWWLTPPQ, for which, in experiment [1], the “effective in blocking the interaction” value was “Particularly effective”; the “inhibition of PA63-LF binding … of YWWLTP” value is “even better efficiency”.
